Assay results published in patent publication US20260055102A1 (Redx Pharma Limited, priority 2022, published 2026).

Experiments:
[1] = target: Recombinant human DDR1 (aa440-876 containing a GST tag) (Homo sapiens (Human), UniProt Q08345); assay: LanthaScreen Eu Kinase Binding Assay DDR1; conditions: Kinase Tracer 178 5 nM, at least two independent replicates; for IC50: read-out: DDR1 pIC50 (converted)
Description: (§1) DDR1 and DDR2 Biochemical Assay Method The capacity of compounds to bind to DDR1 and DDR2 was quantified using a LanthaScreen Eu Kinase Binding Assay. Recombinant human DDR1 (2.5 nM; aa440-876 containing a GST tag) and DDR2 (1.75 nM; aa427-855 containing a GST tag) were diluted in assay buffer (50 mM HEPES pH7.3, 10 mM MgCl2, 1 mM EGTA and 0.01% Tween) with various concentrations of compound in a 384-well plate and a volume of 5 uL. After a 30-minute incubation at room temperature, 2.5 uL of Eu-anti GST antibody (diluted to 1 nM in assay buffer) plus Kinase Tracer 178 (diluted in assay buffer to 5 nM for DDR1 and 10 nM for DDR2) were added to the plate. Following 60-minute incubation at room temperature, time-resolved fluorescence was measured on a BMG Labtech PHERAstar plate reader. DMSO (1%) and reference compound (1 μM) were used to generate the Max and Min assay signals, respectively. Data was analysed using a four-parameter logistic model to calculate IC50 values, with at least two independent replicates were performed for each compound.

[2] = target: Recombinant human DDR2 (aa427-855 containing a GST tag) (Homo sapiens (Human), UniProt Q16832); assay: LanthaScreen Eu Kinase Binding Assay DDR2; conditions: Kinase Tracer 178 10 nM, at least two independent replicates; for IC50: read-out: DDR2 pIC50 (converted)
Description: as §1

Recombinant human DDR1 (aa440-876 containing a GST tag), sequence (Q08345 other isoform, or with tags, fused parts or gaps): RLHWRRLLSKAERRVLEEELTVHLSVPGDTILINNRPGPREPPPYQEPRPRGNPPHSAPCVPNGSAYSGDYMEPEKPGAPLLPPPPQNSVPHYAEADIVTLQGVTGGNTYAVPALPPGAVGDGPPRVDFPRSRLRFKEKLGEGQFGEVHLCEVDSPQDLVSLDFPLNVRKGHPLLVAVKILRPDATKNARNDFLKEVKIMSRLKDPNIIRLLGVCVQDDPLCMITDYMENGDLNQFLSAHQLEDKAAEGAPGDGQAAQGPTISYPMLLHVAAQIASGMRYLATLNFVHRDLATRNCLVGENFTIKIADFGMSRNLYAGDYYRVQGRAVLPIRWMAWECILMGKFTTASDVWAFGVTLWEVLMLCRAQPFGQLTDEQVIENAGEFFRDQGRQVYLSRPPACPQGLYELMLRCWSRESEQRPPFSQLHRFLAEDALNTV
Recombinant human DDR2 (aa427-855 containing a GST tag), sequence (Q16832 427-855): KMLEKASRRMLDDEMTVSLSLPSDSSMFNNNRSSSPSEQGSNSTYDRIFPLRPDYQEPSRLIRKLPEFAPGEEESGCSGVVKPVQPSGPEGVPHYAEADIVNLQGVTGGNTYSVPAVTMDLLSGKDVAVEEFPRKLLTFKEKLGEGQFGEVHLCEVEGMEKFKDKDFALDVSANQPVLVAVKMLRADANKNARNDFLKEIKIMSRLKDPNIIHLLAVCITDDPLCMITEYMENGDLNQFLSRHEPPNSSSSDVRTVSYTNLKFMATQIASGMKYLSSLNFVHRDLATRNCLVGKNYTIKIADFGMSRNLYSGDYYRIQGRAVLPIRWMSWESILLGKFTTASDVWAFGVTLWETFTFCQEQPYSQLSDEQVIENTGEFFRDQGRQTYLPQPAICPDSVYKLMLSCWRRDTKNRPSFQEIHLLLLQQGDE

| Structure (SMILES) | DDR1 pIC50 [1] | IC50 [2] [nM] | IC50 [1] [nM] | DDR2 pIC50 [2] |
| --- | --- | --- | --- | --- |
| Cc1cccc2c1n(-c1ccc(-c3cncc4c3cnn4C)cc1)c(=O)n2CC(=O)N1CCO[C@@H](C(F)(F)F)C1 [Example 10, 4-methyl-3-[4-(1-methypyrazolo[3,4-c]pyridin-4-yl)phenyl]-1-[2-oxo-2-[(2R)-2-(trifluoromethyl)morpholin-4-yl]ethyl]benzimidazol-2-one] | A (pIC50>8) | 10 to 100 |  |  |
| Cn1ncc2c(-c3ccc(-n4c(=O)n(CC(=O)N5CCO[C@H](C(F)(F)F)C5)c5ccccc54)cc3)cncc21 [Example 38, 1-[4-(1-methylpyrazolo[3,4-c]pyridin-4-yl)phenyl]-3-[2-oxo-2-[(2S)-2-(trifluoromethyl)morpholin-4-yl]ethyl]benzimidazol-2-one] |  |  | 10 to 100 | D (pIC50≤6) |
| Cc1cccc2c1n(-c1ccc(-c3cncc4c3cnn4C)cc1)c(=O)n2CC(=O)NCC(F)(F)F [Example 6, 2-[4-methyl-3-[4-(1-methylpyrazolo[3,4-c]pyridin-4-yl)phenyl]-2-oxobenzimidazol-1-yl]-N-(2,2,2-trifluoroethyl)acetamide] | A (pIC50>8) | 10 to 100 |  |  |
| Cn1ncc2c(-c3ccc(-n4c(=O)n(CC(=O)N5CCC[C@H]5C(F)(F)F)c5ccccc54)cn3)cncc21 [Example 65, 1-[6-(1-methylpyrazolo[3,4-c]pyridin-4-yl)-3-pyridyl]-3-[2-oxo-2-[(2S)-2-(trifluoromethyl)pyrrolidin-1-yl]ethyl]benzimidazol-2-one] | A (pIC50>8) | 100 to 1000 |  |  |
| Cc1cccc2c1n(-c1ccc(-c3cncc4c3cnn4C)cn1)c(=O)n2CC(=O)NCC(F)(F)F [Example 58] |  | 100 to 1000 | 10 to 100 |  |
| Cc1nc(-c2cncc3[nH]ncc23)ccc1-n1c(=O)n(CC(=O)NCC(F)(F)F)c2cccc(C)c21 [Example 94, 2-[4-methyl-3-[2-methyl-6-(1H-pyrazolo[3,4-c]pyridin-4-yl)-3-pyridyl]-2-oxo-benzimidazol-1-yl]-N-(2,2,2-trifluoroethyl)acetamide] | A (pIC50>8) | 10 to 100 |  |  |
| Cc1cc(-c2cncc3c2c(C)nn3C)ncc1-n1c(=O)n(CC(=O)NCC(F)(F)F)c2cccc(C)c21 [Example 108] |  |  | 100 to 1000 | D (pIC50≤6) |
| Cc1nc(-c2cncc3c2cnn3C)ccc1-n1c(=O)n(CC(=O)N[C@H](C)C(F)(F)F)c2cccc(C)c21 [Example 112] |  | 100 to 1000 | 10 to 100 |  |
| Cn1ncc2c(-c3ccc(-n4c(=O)n(CC(=O)N5CC(F)(F)C5)c5ccccc54)cc3)cncc21 [Example 35, 1-[2-(3,3-difluoroazetidin-1-yl)-2-oxoethyl]-3-[4-(1-methylpyrazolo[3,4-c]pyridin-4-yl)phenyl]benzimidazol-2-one] | D (pIC50≤6) |  |  | D (pIC50≤6) |
| Cc1cccc2c1n(-c1ccc(-c3cncc4c3cnn4C)nc1)c(=O)n2CC(=O)N[C@@H](C)C(F)(F)F [Example 52, 2-[4-methyl-3-[6-(1-methylpyrazolo[3,4-c]pyridin-4-yl)-3-pyridyl]-2-oxo-benzimidazol-1-yl]-N-[(1S)-2,2,2-trifluoro-1-methyl-ethyl]acetamide] | A (pIC50>8) | 10 to 100 |  |  |
| Cc1nc(-n2c(=O)n(CC(=O)NCC(F)(F)F)c3cccc(C)c32)cnc1-c1cncc2[nH]nc(C)c12 [Example 105, 2-[4-methyl-3-[6-methyl-5-(3-methyl-1H-pyrazolo[3,4-c]pyridin-4-yl)pyrazin-2-yl]-2-oxo-benzimidazol-1-yl]-N-(2,2,2-trifluoroethyl)acetamide] |  | 100 to 1000 | 10 to 100 |  |
| Cc1cc(-n2c(=O)n(CC(=O)NCC(F)(F)F)c3ccccc32)ccc1-c1cncc2c1cnn2C [Example 5, 2-[3-[3-methyl-4-(1-methylpyrazolo[3,4-c]pyridin-4-yl)phenyl]-2-oxobenzimidazol-1-yl]-N-(2,2,2-trifluoroethyl)acetamide] | D (pIC50≤6) |  |  | D (pIC50≤6) |
| Cn1ncc2c(-c3ccc(-n4c(=O)n(CC(=O)NCC(F)(F)F)c5ccccc54)cn3)cncc21 [Example 91, 2-[3-[6-(1-methylpyrazolo[3,4-c]pyridin-4-yl)-3-pyridyl]-2-oxo-benzimidazol-1-yl]-N-(2,2,2-trifluoroethyl)acetamide] | C (7≥pIC50>6) |  |  | D (pIC50≤6) |
| Cn1ncc2c(-c3ccc(-n4c(=O)n(CC(=O)N5CCO[C@@H](C(F)(F)F)C5)c5ccccc54)cc3)cncc21 [Example 37, 1-[4-(1-methylpyrazolo[3,4-c]pyridin-4-yl)phenyl]-3-[2-oxo-2-[(2R)-2-(trifluoromethyl)morpholin-4-yl]ethyl]benzimidazol-2-one] |  |  | 10 to 100 | D (pIC50≤6) |
| Cc1cccc2c1n(-c1ccc(-c3cncc4c3cnn4C)cn1)c(=O)n2CC(=O)N1CCC[C@H]1C(F)(F)F [Example 59, 4-methyl-3-[5-(1-methylpyrazolo[3,4-c]pyridin-4-yl)-2-pyridyl]-1-[2-oxo-2-[(2S)-2-(trifluoromethyl)pyrrolidin-1-yl]ethyl]benzimidazol-2-one] | A (pIC50>8) | 10 to 100 |  |  |
| Cc1cccc2c1n(-c1ccc(-c3cncc4c3cnn4C)cc1)c(=O)n2CC(=O)N1CCC[C@H]1C(F)(F)F [Example 8, 4-methyl-3-[4-(1-methylpyrazolo[3,4-c]pyridin-4-yl)phenyl]-1-[2-oxo-2-[(2S)-2-(trifluoromethyl)pyrrolidin-1-yl]ethyl]benzimidazol-2-one] | A (pIC50>8) |  |  | A (pIC50>8) |
| Cn1ncc2c(-c3ccc(-n4c(=O)n(CC(=O)NCC(F)(F)F)c5ccccc54)c(Cl)c3)cncc21 [Example 87, 2-[3-[2-chloro-4-(1-methylpyrazolo[3,4-c]pyridin-4-yl)phenyl]-2-oxo-benzimidazol-1-yl]-N-(2,2,2-trifluoroethyl)acetamide] | A (pIC50>8) |  |  | D (pIC50≤6) |
| Cn1ncc2c(-c3ccc(-n4c(=O)n(CC(=O)NCC(F)(F)F)c5cnccc54)cc3)cncc21 [Example 78, 2-[1-[4-(1-methylpyrazolo[3,4-c]pyridin-4-yl)phenyl]-2-oxo-imidazo[4,5-c]pyridin-3-yl]-N-(2,2,2-trifluoroethyl)acetamide] | D (pIC50≤6) |  |  | D (pIC50≤6) |
| CC(NC(=O)Cn1c(=O)n(-c2ccc(-c3cncc4c3cnn4C)cc2)c2ccccc21)C1CC1 (stereo not shown) [Example 19, N-(1-cyclopropylethyl)-2-[3-[4-(1-methylpyrazolo[3,4-c]pyridin-4-yl)phenyl]-2-oxobenzimidazol-1-yl]acetamide] |  |  | 10 to 100 | D (pIC50≤6) |
| Cc1cccc2c1n(-c1ccc(-c3cncc4c3cnn4C)cn1)c(=O)n2CC(=O)N[C@@H](C)C(F)(F)F [Example 57, 2-[4-methyl-3-[5-(1-methylpyrazolo[3,4-c]pyridin-4-yl)-2-pyridyl]-2-oxo-benzimidazol-1-yl]-N-[(1S)-2,2,2-trifluoro-1-methyl-ethyl]acetamide] | A (pIC50>8) |  |  | C (7≥pIC50>6) |
| Cc1cccc2c1n(-c1ccc(-c3cncc4c3cnn4C)cn1)c(=O)n2CC(=O)N1CCO[C@H](C(F)(F)F)C1 [Example 61, 4-methyl-3-[5-(1-methylpyrazolo[3,4-c]pyridin-4-yl)-2-pyridyl]-1-[2-oxo-2-[(2S)-2-(trifluoromethyl)morpholin-4-yl]ethyl]benzimidazol-2-one] |  | 100 to 1000 |  |  |
| CC(NC(=O)Cn1c(=O)n(-c2ccc(-c3cncc4c3cnn4C)cc2)c2ccccc21)C(F)(F)F (stereo not shown) [Example 17, 2-[3-[4-(1-methylpyrazolo[3,4-c]pyridin-4-yl)phenyl]-2-oxobenzimidazol-1-yl]-N-(2,2,2-trifluoro-1-methylethyl)acetamide] |  | 100 to 1000 | 10 to 100 |  |
| Cc1cc(-c2cncc3c2cnn3C)ncc1-n1c(=O)n(CC(=O)N[C@@H](C)C(F)(F)F)c2cccc(C)c21 [Example 106] |  | 100 to 1000 | 10 to 100 |  |
| Cn1ncc2c(-c3ccc(-n4c(=O)n(CC(=O)NCC(F)(F)F)c5ccccc54)cc3)cncc21 [Example 1, 2-[3-[4-(1-methylpyrazolo[3,4-c]pyridin-4-yl)phenyl]-2-oxobenzimidazol-1-yl]-N-(2,2,2-trifluoroethyl)acetamide] |  |  | 10 to 100 | D (pIC50≤6) |
| Cc1cccc2c1n(-c1ccc(-c3cncc4c3cnn4C)cc1)c(=O)n2CC(=O)N1CCC[C@H]1CF [Example 26, 4-methyl-3-[4-(1-methylpyrazolo[3,4-c]pyridin-4-yl)phenyl]-1-[2-oxo-2-[(2S)-2-(fluoromethyl)pyrrolidin-1-yl]ethyl]benzimidazol-2-one] |  |  | 10 to 100 |  |
| CN(C)c1cccc2c1n(-c1ccc(-c3cncc4c3cnn4C)cc1)c(=O)n2CC(=O)NCC(F)(F)F [Example 80, 2-[4-(dimethylamino)-3-[4-(1-methylpyrazolo[3,4-c]pyridin-4-yl)phenyl]-2-oxo-benzimidazol-1-yl]-N-(2,2,2-trifluoroethyl)acetamide] |  |  | 10 to 100 |  |
